Measurements published in ChEMBL document CHEMBL1765054 (J Med Chem, 2011).

Key:
Type in all cases: ADME, organism-based
[1] = AUC in C57BL/6 mouse at 10 mg/kg, po; design: dose 10 mg/kg, route oral; details: plasma
[2] = Tmax in C57BL/6 mouse at 10 mg/kg, po; design: dose 10 mg/kg, route oral; details: in vivo
[3] = Volume of distribution at steady state in C57BL/6 mouse at 1 mg/kg, iv; design: dose 1 mg/kg, route intravenous; details: in vivo, read-out: Vdss
Mus musculus = experiment: Bioavailability in C57BL/6 mouse at 10 mg/kg; details: in vivo
[4] = Cmax in C57BL/6 mouse at 10 mg/kg, po; design: dose 10 mg/kg, route oral; details: in vivo
[5] = Cmax in C57BL/6 mouse at 1 mg/kg, iv; design: dose 1 mg/kg, route intravenous; details: in vivo

Row | Structure (SMILES) | AUC [1] | Tmax [2] | Vd [3] | F (Mus musculus) | Cmax [4] | Cmax [5]
1 | O=c1ccc2cnc3ccc(-c4cnc5[nH]ccc5c4)cc3c2n1-c1ccc(F)c(C(F)(F)F)c1 | 352 ng·h/mL | 60 min | 1.3 L/kg | 4.2% | 98 ng/mL | 1640 ng/mL
2 | Cc1cc(-n2c(=O)ccc3cnc4ccc(-c5cn[nH]c5)cc4c32)ccc1F | 2410 ng·h/mL | 30 min | 1.16 L/kg | 21.6% | 853 ng/mL | 1040 ng/mL
3 | Nc1ccc(-c2ccc3ncc4ccc(=O)n(-c5cccc(C(F)(F)F)c5)c4c3c2)cn1 | 4310 ng·h/mL |  |  | 51% | 3970 ng/mL | 1540 ng/mL

Continued, values first:

Row | AUC [1] | Tmax [2] | Vd [3] | F (Mus musculus) | Cmax [4] | Cmax [5] | Structure (SMILES)
4 | 2070 ng·h/mL | 30 min | 1.08 L/kg | 28% | 1040 ng/mL |  | Cc1cc(-n2c(=O)ccc3cnc4ccc(-c5cnn(C)c5)cc4c32)ccc1F
5 | 755 ng·h/mL | 30 min | 2.42 L/kg | 19.2% | 430 ng/mL |  | O=c1ccc2cnc3ccc(-c4cn[nH]c4)cc3c2n1-c1ccc(F)c(C(F)(F)F)c1
